Numbers after ± are expanded uncertainties.
Legend:
[1] = Molar enthalpy of transition or fusion; conditions: Crystal; Adiabatic calorimetry
[2] = molar heat capacity at constant pressure; conditions: 101.33 kPa, Vacuum adiabatic calorimetry
[3] = Crystal; Adiabatic calorimetry

O=C(N[C@@H](Cc1ccccc1)C(=O)O)OCc1ccccc1 [((benzyloxy)carbonyl)-L-phenylalanine]
Conditions | Molar enthalpy of transition or fusion [kcal/mol] | Triple point temperature [K]
[1] | 7.597 ± 0.00789 | –
[3] | – | 359.48 ± 1

[2]
Conditions | molar heat capacity at constant pressure [J/K/mol]
79.13 K, Crystal | 109.2 ± 0.7
81.17 K, Crystal | 111.4 ± 0.7
84.32 K, Crystal | 114.7 ± 0.7
87.26 K, Crystal | 119.7 ± 0.7
90.2 K, Crystal | 124.4 ± 0.8
93.15 K, Crystal | 128 ± 0.8
96.1 K, Crystal | 130.2 ± 0.8
99.05 K, Crystal | 132.6 ± 0.8
103.16 K, Crystal | 135.7 ± 0.9
107.22 K, Crystal | 140.4 ± 0.9
110.14 K, Crystal | 143.8 ± 0.9
113.08 K, Crystal | 146.3 ± 0.9
116.03 K, Crystal | 149.3 ± 0.9
119 K, Crystal | 150.1 ± 0.9
121.92 K, Crystal | 156.4 ± 1
124.86 K, Crystal | 158.7 ± 1
127.83 K, Crystal | 160.7 ± 1
130.81 K, Crystal | 161.9 ± 1
133.81 K, Crystal | 165.1 ± 1
136.78 K, Crystal | 168.9 ± 1
139.76 K, Crystal | 171.3 ± 1.1
142.78 K, Crystal | 172.5 ± 1.1
145.75 K, Crystal | 176.2 ± 1.1
148.7 K, Crystal | 181.2 ± 1.1
152.53 K, Crystal | 181.4 ± 1.1
156.3 K, Crystal | 185.2 ± 1.1
159.2 K, Crystal | 189.8 ± 1.2
162.16 K, Crystal | 191.9 ± 1.2
165.09 K, Crystal | 194.2 ± 1.2
168.09 K, Crystal | 197.5 ± 1.2
171.13 K, Crystal | 198.8 ± 1.2
174.16 K, Crystal | 201.1 ± 1.2
177.16 K, Crystal | 206.1 ± 1.3
180.14 K, Crystal | 209.9 ± 1.3
183.11 K, Crystal | 211.4 ± 1.3
186.05 K, Crystal | 211.8 ± 1.3
188.97 K, Crystal | 218.1 ± 1.3
191.95 K, Crystal | 219.3 ± 1.4
194.98 K, Crystal | 223 ± 1.4
198 K, Crystal | 226.3 ± 1.4
201 K, Crystal | 229.2 ± 1.4
204.65 K, Crystal | 233.5 ± 1.4
208.28 K, Crystal | 236.2 ± 1.5
211.23 K, Crystal | 238.9 ± 1.5
214.17 K, Crystal | 242 ± 1.5
217.09 K, Crystal | 248.7 ± 1.5
220 K, Crystal | 250.5 ± 1.5
222.89 K, Crystal | 252.5 ± 1.5
225.77 K, Crystal | 254.9 ± 1.6
228.72 K, Crystal | 256.4 ± 1.6
231.73 K, Crystal | 258 ± 1.6
234.73 K, Crystal | 260.1 ± 1.6
237.77 K, Crystal | 264.5 ± 1.6
240.78 K, Crystal | 266.6 ± 1.6
244.33 K, Crystal | 268.1 ± 1.6
247.89 K, Crystal | 270.2 ± 1.7
250.89 K, Crystal | 273.1 ± 1.7
253.88 K, Crystal | 277.4 ± 1.7
256.87 K, Crystal | 280.9 ± 1.7
259.83 K, Crystal | 282.4 ± 1.7
262.79 K, Crystal | 286.2 ± 1.8
265.74 K, Crystal | 290.4 ± 1.8
268.67 K, Crystal | 292.7 ± 1.8
271.58 K, Crystal | 297.9 ± 1.8
274.49 K, Crystal | 302.3 ± 1.8
277.38 K, Crystal | 301.8 ± 1.8
280.25 K, Crystal | 307.3 ± 1.9
283.12 K, Crystal | 314.7 ± 1.9
286.09 K, Crystal | 319.9 ± 2
289.05 K, Crystal | 323.8 ± 2
291.98 K, Crystal | 326.7 ± 2
295.01 K, Crystal | 330.1 ± 2
298.06 K, Crystal | 333 ± 2
301.11 K, Crystal | 336.5 ± 2.1
304.15 K, Crystal | 339.5 ± 2.1
307.19 K, Crystal | 340.6 ± 2.1
310.22 K, Crystal | 343.9 ± 2.1
313.24 K, Crystal | 348.3 ± 2.1
316.26 K, Crystal | 351.4 ± 2.1
319.27 K, Crystal | 353.7 ± 2.2
322.27 K, Crystal | 358.3 ± 2.2
325.27 K, Crystal | 362.5 ± 2.2
328.25 K, Crystal | 367.6 ± 2.2
331.24 K, Crystal | 371.4 ± 2.3
334.21 K, Crystal | 375.1 ± 2.3
337.17 K, Crystal | 380.6 ± 2.3
340.13 K, Crystal | 389.8 ± 2.4
343.07 K, Crystal | 396.6 ± 2.4
345.97 K, Crystal | 418.3 ± 2.6
348.88 K, Crystal | 508.8 ± 3.2
361.43 K, Liquid | 549.6 ± 3.3
364.56 K, Liquid | 551.9 ± 3.4
367.7 K, Liquid | 552.7 ± 3.4
370.83 K, Liquid | 553.6 ± 3.4
373.95 K, Liquid | 554.9 ± 3.4
377.05 K, Liquid | 555.6 ± 3.4
380.13 K, Liquid | 557.1 ± 3.4
383.21 K, Liquid | 558.5 ± 3.4
386.33 K, Liquid | 560.8 ± 3.4
389.43 K, Liquid | 562.4 ± 3.4
392.55 K, Liquid | 563.6 ± 3.4
395.55 K, Liquid | 564.8 ± 3.4

Reference: the NIST ThermoML archive (doi:10.1021/je1004092)
